Experimental findings from PubChem BioAssay AID272 (DTP/NCI, 2004) are described below.

Where “and” joins values, the source holds several entries; their conditions need not be identical. Equal entries are not always repeated. Records with an inconclusive call do not appear. Starred links: 1 amine or outer side, 2 acyl side, 3 side chain; linkers in the order of their positions; H or OH if unused. Positions of bridges follow the written chain, without caps; N, C: chain ends. Non-standard residues stand in square brackets, D forms with d. Residues, ends and D or L forms follow the SMILES beside them. Chains are numbered I, II in the order given. Actinocin(9to1) = Cc1c2oc3c(C)ccc(C(=O)[*:1])c3nc-2c(C(=O)[*:2])c(N)c1=O; aThr = C[C@H](O)[C@H](N)C(=O)O; NMeV = CN[C@H](C(=O)O)C(C)C; Sar = CNCC(=O)O

In this experiment the test system is Lewis lung carcinoma i.m., BDF1 mice, T/C %. The experiment can be described thus: NCI In Vivo Anticancer Drug Screen. Data for tumor model Lewis Lung Carcinoma (intramuscular) in B6D2F1 (BDF1) mice. The essentials: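 Value is the ratio of a treated-group measurement (T) to the matching vehicle-control measurement (C), using either survival or tumour size in mice bearing transplanted tumours.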

Where [1] appears, read: endpoint: median survival time, dose: 100.0 mg/kg/injection, schedule: Q01DX011 (ip), vehicle: saline with Tween-80, higher = longer survival.
[2] abbreviates: endpoint: median survival time, dose: 10.0 mg/kg/injection, schedule: Q01DX011 (ip), vehicle: saline with Tween-80, higher = longer survival.
The mark [3] stands for this setting: endpoint: mean tumor weight, dose: 25.0 mg/kg/injection, schedule: Q01DX011 (ip), vehicle: other, higher = larger tumour.

Consider `Cc1nc(N)nc(N)c1-c1ccc(Cl)c(Cl)c1`, for which the T/C is 180 % of control (endpoint: mean tumor weight, dose: 6.0 mg/kg/injection, schedule: Q04DX004 (ip), vehicle: saline, higher = larger tumour); 100 % of control (endpoint: median survival time, dose: 4.0 mg/kg/injection, schedule: Q04DX004 (ip), vehicle: saline, higher = longer survival); 116 % of control (endpoint: median survival time, dose: 8.0 mg/kg/injection, schedule: Q04DX004 (ip), vehicle: saline, higher = longer survival).
For the compound `CC(=N/NC(N)=S)/C(C)=N/NC(N)=S`, the T/C (endpoint: mean tumor weight (est.), dose: 100.0 mg/kg/injection, schedule: Q01DX011 (ip), vehicle: saline with Tween-80, higher = larger tumour) was 73 % of control; the T/C (endpoint: mean tumor weight (est.), dose: 200.0 mg/kg/injection, schedule: Q01DX011 (ip), vehicle: saline with Tween-80, higher = larger tumour) was 65 % of control; the T/C (endpoint: mean tumor weight (est.), dose: 400.0 mg/kg/injection, schedule: Q01DX011 (ip), vehicle: saline with Tween-80, higher = larger tumour) was 42 % of control; the T/C under setting [1] is 93 % of control; the T/C (endpoint: median survival time, dose: 200.0 mg/kg/injection, schedule: Q01DX011 (ip), vehicle: saline with Tween-80, higher = longer survival) was 91 % of control; the T/C (endpoint: median survival time, dose: 400.0 mg/kg/injection, schedule: Q01DX011 (ip), vehicle: saline with Tween-80, higher = longer survival) was 91 % of control.
Consider `Cc1c[n+]2c3ccccc3c3ccccc3c2s1`, for which the T/C reads like this: (endpoint: mean tumor weight, dose: 10.0 mg/kg/injection, schedule: Q01DX011 (ip), vehicle: saline, higher = larger tumour) 112 % of control; under setting [2], 89 % of control.
Consider `CS(=O)(=O)OCCCCOS(C)(=O)=O`, for which the T/C reads like this: (endpoint: mean tumor weight, dose: 12.5 mg/kg/injection, schedule: Q01DX011 (ip), vehicle: Klucel (hydroxypropylcellulose) (HPC), higher = larger tumour) 88 % of control; (endpoint: mean tumor weight, dose: 25.0 mg/kg/injection, schedule: Q01DX011 (ip), vehicle: Klucel (hydroxypropylcellulose) (HPC), higher = larger tumour) 109 % of control; (endpoint: median survival time, dose: 12.5 mg/kg/injection, schedule: Q01DX011 (ip), vehicle: Klucel (hydroxypropylcellulose) (HPC), higher = longer survival) 89 % of control.
For the compound `CC(C)n1c2c([n+](C)c1/C=C/c1ccccc1)C(=O)c1ccccc1C2=O`, the T/C (endpoint: mean tumor weight (est.), dose: 1.0 mg/kg/injection, schedule: Q01DX011 (ip), vehicle: saline with Tween-80, higher = larger tumour) is 43 % of control.
As for `Cc1c2oc3c(C)ccc(C(=O)N[C@@H]4C(=O)N[C@H](C(C)C)C(=O)N5CCC[C@H]5C(=O)N(C)CC(=O)N(C)[C@@H](C(C)C)C(=O)O[C@H]4C)c3nc-2c(C(=O)N[C@@H]2C(=O)N[C@H](C(C)C)C(=O)N3CCC[C@H]3C(=O)N(C)CC(=O)N(C)[C@@H](C(C)C)C(=O)O[C@H]2C)c(N)c1=O` (I: [aThr][dV]P[Sar][NMeV] / II: [aThr][dV]P[Sar][NMeV]; ester I:1-I:C, II:1-II:C; linker I:N-II:N via Actinocin(9to1)), the T/C by setting is: (endpoint: median survival time, dose: 0.01 mg/kg/injection, schedule: Q01DX011 (ip), vehicle: water, higher = longer survival) 99 % of control and 110 % of control and 112 % of control; (endpoint: median survival time, dose: 0.02 mg/kg/injection, schedule: Q01DX011 (ip), vehicle: water, higher = longer survival) 93 % of control and 94 % of control and 110 % of control; (endpoint: median survival time, dose: 0.04 mg/kg/injection, schedule: Q01DX011 (ip), vehicle: water, higher = longer survival) 110 % of control; (endpoint: median survival time, dose: 0.05 mg/kg/injection, schedule: Q01DX011 (ip), vehicle: water, higher = longer survival) 99 % of control and 100 % of control.
Turning to `O=Nc1c(N=O)c(N=O)c(N=O)c(N=O)c1N=O`, the T/C was 110 % of control (endpoint: median survival time, dose: 5.0 mg/kg/injection, schedule: Q01DX011 (ip), vehicle: saline with Tween-80, higher = longer survival); 106 % of control under setting [2]; 115 % of control (endpoint: median survival time, dose: 20.0 mg/kg/injection, schedule: Q01DX011 (ip), vehicle: saline with Tween-80, higher = longer survival).
As for `S=c1nc[nH]c2nc[nH]c12`, the T/C by setting is: (endpoint: mean tumor weight, dose: 10.0 mg/kg/injection, schedule: Q01DX011 (ip), vehicle: other, higher = larger tumour) 77 % of control; (endpoint: mean tumor weight, dose: 20.0 mg/kg/injection, schedule: Q01DX011 (ip), vehicle: other, higher = larger tumour) 77 % of control; (endpoint: mean tumor weight, dose: 40.0 mg/kg/injection, schedule: Q01DX011 (ip), vehicle: other, higher = larger tumour) 89 % of control; (endpoint: mean tumor weight, dose: 65.0 mg/kg/injection, schedule: Q01DX011 (ip), vehicle: other, higher = larger tumour) 58 % of control; (endpoint: median survival time, dose: 4.0 mg/kg/injection, schedule: Q01DX011 (ip), vehicle: other, higher = longer survival) 91 % of control and 108 % of control; (endpoint: median survival time, dose: 8.0 mg/kg/injection, schedule: Q01DX011 (ip), vehicle: other, higher = longer survival) 91 % of control and 111 % of control. Moreover, the T/C runs as follows: (endpoint: median survival time, dose: 10.0 mg/kg/injection, schedule: Q01DX011 (ip), vehicle: other, higher = longer survival) 110 % of control; (endpoint: median survival time, dose: 16.0 mg/kg/injection, schedule: Q01DX011 (ip), vehicle: other, higher = longer survival) 93 % of control; (endpoint: median survival time, dose: 20.0 mg/kg/injection, schedule: Q01DX011 (ip), vehicle: other, higher = longer survival) 112 % of control; (endpoint: median survival time, dose: 32.0 mg/kg/injection, schedule: Q01DX011 (ip), vehicle: other, higher = longer survival) 98 % of control.
On to `Nc1nc2n[nH]nc2c(=O)[nH]1`, for which the T/C was 81 % of control under setting [3] and 64 % of control (endpoint: mean tumor weight, dose: 100.0 mg/kg/injection, schedule: Q01DX011 (ip), vehicle: other, higher = larger tumour).
Take `COc1cc2c3c(c4ccc(OC)c(OC)c4c2cc1OC)CN1CCC[C@@H]1C3`: the T/C is, setting by setting: (endpoint: mean tumor weight, dose: 1.0 mg/kg/injection, schedule: Q01DX011 (ip), vehicle: Klucel (hydroxypropylcellulose) (HPC), higher = larger tumour) 88 % of control and 93 % of control; (endpoint: mean tumor weight, dose: 2.0 mg/kg/injection, schedule: Q01DX011 (ip), vehicle: Klucel (hydroxypropylcellulose) (HPC), higher = larger tumour) 69 % of control and 77 % of control; (endpoint: mean tumor weight, dose: 4.0 mg/kg/injection, schedule: Q01DX011 (ip), vehicle: Klucel (hydroxypropylcellulose) (HPC), higher = larger tumour) 85 % of control and 89 % of control; (endpoint: mean tumor weight, dose: 8.0 mg/kg/injection, schedule: Q01DX011 (ip), vehicle: Klucel (hydroxypropylcellulose) (HPC), higher = larger tumour) 64 % of control and 73 % of control; (endpoint: mean tumor weight, dose: 16.0 mg/kg/injection, schedule: Q01DX011 (ip), vehicle: Klucel (hydroxypropylcellulose) (HPC), higher = larger tumour) 41 % of control; (endpoint: median survival time, dose: 1.0 mg/kg/injection, schedule: Q01DX011 (ip), vehicle: Klucel (hydroxypropylcellulose) (HPC), higher = longer survival) 102 % of control. Also, the T/C is, setting by setting: (endpoint: median survival time, dose: 2.0 mg/kg/injection, schedule: Q01DX011 (ip), vehicle: Klucel (hydroxypropylcellulose) (HPC), higher = longer survival) 86 % of control; (endpoint: median survival time, dose: 4.0 mg/kg/injection, schedule: Q01DX011 (ip), vehicle: Klucel (hydroxypropylcellulose) (HPC), higher = longer survival) 114 % of control; (endpoint: median survival time, dose: 8.0 mg/kg/injection, schedule: Q01DX011 (ip), vehicle: Klucel (hydroxypropylcellulose) (HPC), higher = longer survival) 100 % of control.
Take `C=CCNC(=O)NCC=C`: the T/C was 74 % of control (endpoint: mean tumor weight, dose: 6.25 mg/kg/injection, schedule: Q01DX011 (ip), vehicle: saline with Tween-80, higher = larger tumour); 69 % of control (endpoint: mean tumor weight, dose: 12.5 mg/kg/injection, schedule: Q01DX011 (ip), vehicle: saline with Tween-80, higher = larger tumour); 73 % of control (endpoint: mean tumor weight, dose: 25.0 mg/kg/injection, schedule: Q01DX011 (ip), vehicle: saline with Tween-80, higher = larger tumour); 76 % of control (endpoint: mean tumor weight, dose: 50.0 mg/kg/injection, schedule: Q01DX011 (ip), vehicle: saline with Tween-80, higher = larger tumour); 80 % of control (endpoint: mean tumor weight, dose: 100.0 mg/kg/injection, schedule: Q01DX011 (ip), vehicle: saline with Tween-80, higher = larger tumour); 113 % of control (endpoint: median survival time, dose: 6.25 mg/kg/injection, schedule: Q01DX011 (ip), vehicle: saline with Tween-80, higher = longer survival). The T/C (endpoint: median survival time, dose: 12.5 mg/kg/injection, schedule: Q01DX011 (ip), vehicle: saline with Tween-80, higher = longer survival) is 108 % of control; the T/C (endpoint: median survival time, dose: 25.0 mg/kg/injection, schedule: Q01DX011 (ip), vehicle: saline with Tween-80, higher = longer survival) was 113 % of control; the T/C (endpoint: median survival time, dose: 50.0 mg/kg/injection, schedule: Q01DX011 (ip), vehicle: saline with Tween-80, higher = longer survival) is 86 % of control; the T/C under setting [1] was 100 % of control.
As for `Nc1nc(=S)c2ncn(C3CC(O)C(CO)O3)c2[nH]1` (configuration not stated), the T/C runs as follows: (endpoint: mean tumor weight, dose: 3.12 mg/kg/injection, schedule: Q01DX011 (ip), vehicle: other, higher = larger tumour) 120 % of control; (endpoint: mean tumor weight, dose: 6.25 mg/kg/injection, schedule: Q01DX011 (ip), vehicle: other, higher = larger tumour) 112 % of control; (endpoint: mean tumor weight, dose: 12.5 mg/kg/injection, schedule: Q01DX011 (ip), vehicle: other, higher = larger tumour) 120 % of control; under setting [3], 69 % of control; (endpoint: median survival time, dose: 1.56 mg/kg/injection, schedule: Q01DX011 (ip), vehicle: other, higher = longer survival) 112 % of control; (endpoint: median survival time, dose: 3.12 mg/kg/injection, schedule: Q01DX011 (ip), vehicle: other, higher = longer survival) 95 % of control. Further, the T/C was 102 % of control (endpoint: median survival time, dose: 6.25 mg/kg/injection, schedule: Q01DX011 (ip), vehicle: other, higher = longer survival); 112 % of control (endpoint: median survival time, dose: 12.5 mg/kg/injection, schedule: Q01DX011 (ip), vehicle: other, higher = longer survival); 112 % of control (endpoint: median survival time, dose: 25.0 mg/kg/injection, schedule: Q01DX011 (ip), vehicle: other, higher = longer survival).
As for `Cc1c(N)nc(C(CC(N)=O)NCC(N)C(N)=O)nc1C(=O)NC(C(=O)NC(C)C(O)C(C)C(=O)NC(C(=O)NCCc1nc(-c2nc(C(=O)NCCCCN=C(N)N)cs2)cs1)C(C)O)C(OC1OC(CO)C(O)C(O)C1OC1OC(CO)C(O)C(OC(N)=O)C1O)c1cnc[nH]1` (configuration not stated), the T/C is, setting by setting: (endpoint: median survival time, dose: 3.9 mg/kg/injection, schedule: Q01DX011 (ip), vehicle: saline, higher = longer survival) 122 % of control; (endpoint: median survival time, dose: 6.5 mg/kg/injection, schedule: Q01DX011 (ip), vehicle: saline, higher = longer survival) 112 % of control; (endpoint: median survival time, dose: 10.8 mg/kg/injection, schedule: Q01DX011 (ip), vehicle: saline, higher = longer survival) 150 % of control; (endpoint: median survival time, dose: 18.0 mg/kg/injection, schedule: Q01DX011 (ip), vehicle: saline, higher = longer survival) 170 % of control; (endpoint: median survival time, dose: 30.0 mg/kg/injection, schedule: Q01DX011 (ip), vehicle: saline, higher = longer survival) 168 % of control.
